Assay results: patent publication US20180057462A1, “Substituted 2-difluoromethyl-nicotin(thio)carboxanilide derivatives and their use as fungicides” (BAYER CROPSCIENCE AKTIENGESELLSCHAFT, priority 2015, published 2018)

experiment: LogP by HPLC on reversed phase columns (EEC directive 79/831 Annex V.A8), method [a]; assay type: physicochemical; details: LC-UV, acidic range, 0.1% formic acid in water and acetonitrile as eluent (linear gradient 10% to 95% acetonitrile)

| SMILES | LogP[a] |
| --- | --- |
| Cc1c(NC(=O)c2cccnc2C(F)F)cccc1OC(C)CC(C)(C)C (centres unmarked) [Example 84] | 4.21 |
| Cc1cccc(OCC(C)Oc2cccc(NC(=O)c3cccnc3C(F)F)c2C)c1 (centres unmarked) [Example 33] | 3.68 |
| Cc1c(NC(=O)c2cccnc2C(F)F)cccc1OCc1ncc(C(F)(F)F)cc1Cl [Example 17] | 3.23 |
| Cc1c(NC(=O)c2cccnc2C(F)F)cccc1OCc1ccc(Cl)cc1Cl [Example 46] | 3.99 |
| Cc1c(NC(=O)c2cccnc2C(F)F)cccc1C1CCCO1 (centres unmarked) [Example 82] | 2.02 |
| Cc1c(NC(=O)c2cccnc2C(F)F)cccc1OC(C)c1ccc(Cl)cc1Cl (centres unmarked) [Example 115] | 4.41 |
| Cc1c(NC(=O)c2cccnc2C(F)F)cccc1OCc1cccs1 [Example 71] | 2.82 |
| Cc1c(NC(=O)c2cccnc2C(F)F)cccc1OC(C)(C)C(C)C [Example 117] | 3.61 |
| CCOc1cccc(NC(=O)c2cccnc2C(F)F)c1C [Example 118] | 2.34 |
| Cc1c(NC(=O)c2cccnc2C(F)F)cccc1Oc1ncc(C(F)(F)F)cc1Cl [Example 18] | 3.48 |
| Cc1c(NC(=O)c2cccnc2C(F)F)cccc1N(C)C1CCCC1 [Example 109] | 1.39 |
| Cc1c(NC(=O)c2cccnc2C(F)F)cccc1OCCC(C)(C)C [Example 78] | 3.85 |
| Cc1c(CCC(C)(C)C)cccc1NC(=O)c1cccnc1C(F)F [Example 74] | 3.92 |
| Cc1c(NC(=O)c2cccnc2C(F)F)cccc1OCc1ccc(Br)cc1 [Example 19] | 3.55 |
| Cc1c(NC(=O)c2cccnc2C(F)F)cccc1OC(C)COc1ccccc1Cl (centres unmarked) [Example 35] | 3.59 |
| CCC(C)Oc1cccc(NC(=O)c2ccc(Cl)nc2C(F)F)c1C(F)(F)F (centres unmarked) [Example 96] | 3.83 |
| Cc1c(NC(=O)c2cccnc2C(F)F)cccc1OC(C)COCC(C)C (centres unmarked) [Example 23] | 3.55 |
| Cc1c(NC(=O)c2cccnc2C(F)F)cccc1OC(C)CC(C)C (centres unmarked) [Example 15] | 3.79 |
| CO/N=C\C(C)Oc1cccc(NC(=O)c2cccnc2C(F)F)c1C (centres unmarked) [Example 28] | 2.49 |
| Cc1c(NC(=O)c2cccnc2C(F)F)cccc1OCCc1ccccc1F [Example 62] | 3.31 |

| SMILES | LogP[a] |
| --- | --- |
| CCC(C)Oc1cccc(NC(=O)c2cc(C)cnc2C(F)F)c1C(F)(F)F (centres unmarked) [Example 95] | 3.44 |
| O=C(Nc1cccc(-c2cc(F)ccc2F)c1Cl)c1cccnc1C(F)F [Example 2] | 3.11 |
| Cc1c(CCC2CC2(Cl)Cl)cccc1NC(=O)c1c(C(F)F)ccnc1C(F)F (centres unmarked) [Example 1] | 3.92 |
| Cc1c(NC(=O)c2cccnc2C(F)F)cccc1OC(C)Cc1ccccc1 (centres unmarked) [Example 88] | 3.62 |
| CCC(CC)Nc1cccc(NC(=O)c2cccnc2C(F)F)c1C [Example 106] | 2.86 |
| CCC(CC)Oc1cccc(NC(=O)c2cccnc2C(F)F)c1C(F)(F)F [Example 92] | 3.55 |
| Cc1c(NC(=O)c2cccnc2C(F)F)cccc1OCCc1ccc(C(F)(F)F)cc1 [Example 58] | 3.72 |
| Cc1c(NC(=O)c2cccnc2C(F)F)cccc1OCCc1cccc(Cl)c1 [Example 65] | 3.61 |
| O=C(Nc1cccc(-c2ccc(F)cc2F)c1Cl)c1cccnc1C(F)F [Example 10] | 3.12 |
| O=C(Nc1cccc(-c2ccccc2)c1Cl)c1cccnc1C(F)F [Example 3] | 3.05 |
| O=C(Nc1cccc(-c2cccc(F)c2)c1Cl)c1cccnc1C(F)F [Example 5] | 3.12 |
| Cc1c(NC(=O)c2cccnc2C(F)F)cccc1OC(C)C(C)C (centres unmarked) [Example 14] | 3.41 |
| Cc1c(NC(=O)c2c(C(F)F)ccnc2C(F)F)cccc1OC1CCCC1 [Example 123] | 3.70 |
| CCCC(CC)Oc1cccc(NC(=O)c2cccnc2C(F)F)c1C(F)(F)F (centres unmarked) [Example 93] | 3.92 |
| Cc1c(NC(=O)c2cccnc2C(F)F)cccc1OCc1cccc(Cl)c1Cl [Example 45] | 3.83 |
| Cc1c(NC(=O)c2cccnc2C(F)F)cccc1OCCc1ccc(F)cc1 [Example 63] | 3.29 |
| Cc1c(NC(=O)c2cccnc2C(F)F)cccc1OC(C)c1ccccc1C(F)(F)F (centres unmarked) [Example 55] | 3.87 |
| Cc1c(NC(=O)c2cccnc2C(F)F)cccc1OC(C)c1ccccc1 (centres unmarked) [Example 89] | 3.33 |
| Cc1c(NC(=O)c2cccnc2C(F)F)cccc1OC1CCCCC1 [Example 16] | 3.52 |
| CCO/N=C\C(C)Oc1cccc(NC(=O)c2cccnc2C(F)F)c1C (centres unmarked) [Example 29] | 2.82 |

| SMILES | LogP[a] |
| --- | --- |
| Cc1c(NC(=O)c2cccnc2C(F)F)cccc1OC(C)c1cccc(Cl)c1 (centres unmarked) [Example 51] | 3.63 |
| CCCC(CC)Oc1cccc(NC(=O)c2cccnc2C(F)F)c1C (centres unmarked) [Example 83] | 3.94 |
| Cc1c(NC(=O)c2cccnc2C(F)F)cccc1OC(C)CCC(C)C (centres unmarked) [Example 87] | 4.26 |
| CCOCC(C)Oc1cccc(NC(=O)c2cccnc2C(F)F)c1C (centres unmarked) [Example 20] | 2.57 |
| Cc1c(NC(=O)c2cccnc2C(F)F)cccc1OCCC(F)(F)F [Example 120] | 2.68 |
| Cc1c(NC(=O)c2cccnc2C(F)F)cccc1OC(C)Cc1cccc(Cl)c1 (centres unmarked) [Example 68] | 3.85 |
| Cc1c(NC(=O)c2cccnc2C(F)F)cccc1OC(C)c1ccccc1F (centres unmarked) [Example 57] | 3.37 |
| Cc1c(NC(=O)c2cccnc2C(F)F)cccc1OC(C)CSc1ccccc1 (centres unmarked) [Example 70] | 3.65 |
| Cc1c(NC(=O)c2cccnc2C(F)F)cccc1C1CC2CCC1C2 (centres unmarked) [Example 81] | 3.80 |
| Cc1c(NC(=O)c2cccnc2C(F)F)cccc1OC(C)c1c(F)cccc1F (centres unmarked) [Example 52] | 3.33 |
| Cc1c(NC(=O)c2cccnc2C(F)F)cccc1OC(C)c1ccc(Cl)c(Cl)c1 (centres unmarked) [Example 48] | 4.01 |
| Cc1cnc(C(F)F)c(C(=O)Nc2cccc(OC(C)C)c2C(F)(F)F)c1 [Example 98] | 3.04 |
| Cc1ccc(-c2cccc(NC(=O)c3cccnc3C(F)F)c2C)s1 [Example 111] | 3.19 |
| Cc1c(NC(=O)c2cccnc2C(F)F)cccc1OCCc1cccc(C(F)(F)F)c1 [Example 60] | 3.68 |
| Cc1c(NC(=O)c2cccnc2C(F)F)cccc1N(C)C [Example 108] | 0.45 |
| CC(Oc1cccc(NC(=O)c2cccnc2C(F)F)c1C(F)(F)F)c1ccccc1 (centres unmarked) [Example 101] | 3.42 |
| O=C(Nc1cccc(-c2ccc(F)cc2)c1Cl)c1cccnc1C(F)F [Example 6] | 3.12 |
| Cc1c(NC(=O)c2cccnc2C(F)F)cccc1OCc1ccccc1Cl [Example 37] | 3.41 |

same assay, conditions: reversed phase HPLC column; LC-UV, acidic range, 0.1% formic acid in water and acetonitrile as eluent (linear gradient 10% to 95% acetonitrile)

| SMILES | chromatographic logP |
| --- | --- |
| Cc1c(NC(=O)c2cccnc2C(F)F)cccc1-c1cncc(C(F)(F)F)c1 [Example 110, 2-(difluoromethyl)-N-{2-methyl-3-[5-(trifluoromethyl)pyridin-3-yl]phenyl}nicotinamide] | 2.6 |
